Assay results taken from patent US12077503B2, “Substituted cyclic amides and their use as herbicides” (FMC CORPORATION, priority 2015, dated 2024).

Experiments:
Format in all cases: in vivo
rice (Oryra sativa) = experiment: Test B flooded paddy test; settings: Oryza sativa, 250 g ai/ha, Flood; 0 to 100 scale where 0 is no effect and 100 is complete control; read-out: Rice plant response rating
In short: (§1)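 Plants at 2-leaf stage flooded to 3 cm above soil, with compounds applied directly to paddy water and that depth maintained. Plants kept in greenhouse 13–15 d. Visual rating versus controls on a 0 (no effect) to 100 (complete control) scale.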

[1] = system: sedge, umbrella (small-flower umbrella sedge, Cyperus difformis); experiment: Test B flooded paddy test; settings: Cyperus difformis, 250 g ai/ha, Flood; 0 to 100 scale where 0 is no effect and 100 is complete control; read-out: Sedge, Umbrella plant response rating
In short: as §1

[2] = system: ducksalad (Heteranthera limosa); experiment: Test B flooded paddy test; settings: Heteranthera limosa, 250 g ai/ha, Flood; 0 to 100 scale where 0 is no effect and 100 is complete control; read-out: Ducksalad plant response rating
In short: as §1

[3] = system: barnyardgrass (Echinochloa crus-galli); experiment: Test B flooded paddy test; settings: Echinochloa crus-galli, 250 g ai/ha, Flood; 0 to 100 scale where 0 is no effect and 100 is complete control; read-out: Barnyardgrass plant response rating
In short: as §1

[4] = system: giant foxtail (Setaria faberii); experiment: Test A preemergence; settings: Setaria faberi, pre-emergence, 240 h
In short: (§2)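 Seeded soil received test chemicals as a preemergence directed spray, and seedlings at one to two leaves, 2–10 cm tall, received them postemergence, in a non-phytotoxic, surfactant-containing solvent mixture. Pots were held in a greenhouse for approximately 10 d, then rated for injury from 0, no effect, to 100, complete control.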

[5] = system: ryegrass, Italian (Italian ryegrass, Lolium multiflorum); experiment: Test A preemergence; settings: Lolium multiflorum, pre-emergence, 240 h
In short: as §2

[6] = system: pigweed (Amaranthus retroflexus); experiment: Test A preemergence; settings: Amaranthus retroflexus, pre-emergence, 240 h
Kochia (Kochia scoparia) [7] = experiment: Test A preemergence; settings: Bassia scoparia, pre-emergence, 240 h
In short: as §2

[8] = system: ragweed (common ragweed, Ambrosia elatior); experiment: Test A preemergence; settings: Ambrosia artemisiifolia, pre-emergence, 240 h
In short: as §2

[9] = system: barnyardgrass (Echinochloa crus-galli); experiment: Test A preemergence; settings: Echinochloa crus-galli, pre-emergence, 240 h
In short: as §2

[10] = system: Galium (catchweed bedstraw, Galium aparine); experiment: Test A postemergence; settings: Galium, post-emergence, 240 h, read-out: Plant response rating, Galium
In short: as §2

[11] = system: blackgrass (Alopecurus myosuroides); experiment: Test A postemergence; settings: Alopecurus myosuroides, post-emergence, 240 h, read-out: Plant response rating, Blackgrass
In short: as §2

[12] = system: giant foxtail (Setaria faberii); experiment: Test A postemergence; settings: Setaria faberi, post-emergence, 240 h, read-out: Plant response rating, Foxtail, Giant
In short: as §2

[13] = system: ryegrass, Italian (Italian ryegrass, Lolium multiflorum); experiment: Test A postemergence; settings: Lolium multiflorum, post-emergence, 240 h, read-out: Plant response rating, Ryegrass, Italian
In short: as §2

[14] = system: pigweed (Amaranthus retroflexus); experiment: Test A postemergence; settings: Amaranthus retroflexus, post-emergence, 240 h, read-out: Plant response rating, Pigweed
In short: as §2

Kochia (Kochia scoparia) [15] = experiment: Test A postemergence; settings: Bassia scoparia, post-emergence, 240 h, read-out: Plant response rating, Kochia
In short: as §2

corn (Zea mays) = experiment: Test A postemergence; settings: Zea mays, post-emergence, 240 h
In short: as §2

[16] = system: ragweed (common ragweed, Ambrosia elatior); experiment: Test A postemergence; settings: Ambrosia artemisiifolia, post-emergence, 240 h, read-out: Plant response rating, Ragweed
In short: as §2

[17] = system: wheat (Triticum aestivum); experiment: Test A postemergence; settings: Triticum aestivum, post-emergence, 240 h, read-out: Plant response rating, Wheat
In short: as §2

[18] = system: barnyardgrass (Echinochloa crus-galli); experiment: Test A postemergence; settings: Echinochloa crus-galli, post-emergence, 240 h, read-out: Plant response rating, Barnyardgrass
In short: as §2

[19] = 125 g ai/ha, Postemergence, visual injury after approximately 10 d, 0 to 100 scale where 0 is no effect and 100 is complete control
[20] = 500 g ai/ha, postemergence, visual injury, 0 to 100 scale (0 no effect, 100 complete control), approx. 10 d

**Q.** `CSc1ccccc1NC(=O)[C@H]1C(=O)N(C)C[C@@H]1c1cc(C)c(Br)c(C)c1` [Compound 1025] was tested. Which pest or weed control at 250 g/ha (rice (Oryra sativa)) did it give?
**A.** 0%

**Q.** What about the pest or weed control at 250 g/ha [1] of the same compound?
**A.** 0%

**Q.** And the pest or weed control at 250 g/ha [2]?
**A.** 0%

**Q.** And the pest or weed control at 250 g/ha [3]?
**A.** 0%

**Q.** And the pest or weed control at 125 g/ha ([4]; 125 g ai/ha, Preemergence, visual injury rating after approximately 10 d, read-out: Foxtail, Giant plant response rating (0 to 100 scale, 0 is no effect, 100 is complete control))?
**A.** 90%

**Q.** And the pest or weed control at 500 g/ha ([4]; 500 g ai/ha, preemergence, visual injury rating about 10 d after treatment, 0 to 100 scale (0 no effect, 100 complete control), read-out: Foxtail, Giant plant response rating)?
**A.** 90%

**Q.** What about the pest or weed control at 125 g/ha ([5]; 125 g ai/ha, Preemergence, visual injury rating after approximately 10 d, read-out: Ryegrass, Italian plant response rating (0 to 100 scale, 0 is no effect, 100 is complete control)) of the same compound?
**A.** 0%

**Q.** What about the pest or weed control at 500 g/ha ([5]; 500 g ai/ha, preemergence, visual injury rating about 10 d after treatment, 0 to 100 scale (0 no effect, 100 complete control), read-out: Ryegrass, Italian plant response rating) of the same compound?
**A.** 30%

**Q.** What about the pest or weed control at 125 g/ha ([6]; 125 g ai/ha, Preemergence, visual injury rating after approximately 10 d, read-out: Pigweed plant response rating (0 to 100 scale, 0 is no effect, 100 is complete control)) of the same compound?
**A.** 0%

**Q.** And the pest or weed control at 500 g/ha ([6]; 500 g ai/ha, preemergence, visual injury rating about 10 d after treatment, 0 to 100 scale (0 no effect, 100 complete control), read-out: Pigweed plant response rating)?
**A.** 50%

**Q.** What about the pest or weed control at 125 g/ha (Kochia (Kochia scoparia) [7]; 125 g ai/ha, Preemergence, visual injury rating after approximately 10 d, read-out: Kochia plant response rating (0 to 100 scale, 0 is no effect, 100 is complete control)) of the same compound?
**A.** 0%

**Q.** And the pest or weed control at 500 g/ha (Kochia (Kochia scoparia) [7]; 500 g ai/ha, preemergence, visual injury rating about 10 d after treatment, 0 to 100 scale (0 no effect, 100 complete control), read-out: Kochia plant response rating)?
**A.** 20%

**Q.** And the pest or weed control at 125 g/ha ([8]; 125 g ai/ha, Preemergence, visual injury rating after approximately 10 d, read-out: Ragweed plant response rating (0 to 100 scale, 0 is no effect, 100 is complete control))?
**A.** 0%

**Q.** What about the pest or weed control at 500 g/ha ([8]; 500 g ai/ha, preemergence, visual injury rating about 10 d after treatment, 0 to 100 scale (0 no effect, 100 complete control), read-out: Ragweed plant response rating) of the same compound?
**A.** 0%

**Q.** And the pest or weed control at 125 g/ha ([9]; 125 g ai/ha, Preemergence, visual injury rating after approximately 10 d, read-out: Barnyardgrass plant response rating (0 to 100 scale, 0 is no effect, 100 is complete control))?
**A.** 70%

**Q.** What about the pest or weed control at 500 g/ha ([9]; 500 g ai/ha, preemergence, visual injury rating about 10 d after treatment, 0 to 100 scale (0 no effect, 100 complete control), read-out: Barnyardgrass plant response rating) of the same compound?
**A.** 70%

**Q.** What about the pest or weed control at 125 g/ha [10, 19] of the same compound?
**A.** 30%

**Q.** And the pest or weed control at 500 g/ha [10, 20]?
**A.** 30%

**Q.** And the pest or weed control at 125 g/ha [11, 19]?
**A.** 0%

**Q.** What about the pest or weed control at 500 g/ha [11, 20] of the same compound?
**A.** 0%

**Q.** What about the pest or weed control at 125 g/ha [12, 19] of the same compound?
**A.** 60%

**Q.** And the pest or weed control at 500 g/ha [12, 20]?
**A.** 60%

**Q.** And the pest or weed control at 125 g/ha [13, 19]?
**A.** 0%

**Q.** What about the pest or weed control at 500 g/ha [13, 20] of the same compound?
**A.** 30%

**Q.** What about the pest or weed control at 125 g/ha [14, 19] of the same compound?
**A.** 0%

**Q.** And the pest or weed control at 500 g/ha [14, 20]?
**A.** 30%

**Q.** What about the pest or weed control at 125 g/ha (Kochia (Kochia scoparia) [15]; [19]) of the same compound?
**A.** 30%

**Q.** And the pest or weed control at 500 g/ha (Kochia (Kochia scoparia) [15]; [20])?
**A.** 50%

**Q.** And the Corn plant response rating (crop injury, 0 = no effect, 100 = complete kill) at 125 g/ha (corn (Zea mays); [19])?
**A.** 0%

**Q.** What about the Corn plant response rating (crop injury, 0 = no effect, 100 = complete kill) at 500 g/ha (corn (Zea mays); [20]) of the same compound?
**A.** 20%

**Q.** And the pest or weed control at 125 g/ha [16, 19]?
**A.** 0%

**Q.** And the pest or weed control at 500 g/ha [16, 20]?
**A.** 0%

**Q.** What about the plant injury at 125 g/ha [17, 19] of the same compound?
**A.** 0%

**Q.** And the plant injury at 500 g/ha [17, 20]?
**A.** 0%

**Q.** And the pest or weed control at 125 g/ha [18, 19]?
**A.** 60%

**Q.** What about the pest or weed control at 500 g/ha [18, 20] of the same compound?
**A.** 70%
